Like-named read-outs stand apart in the source and are kept apart here.
Experiments:
[1] = test system: DENV-2 NGC; assay: Antiviral activity against DENV-2 NGC in Vero-B cells (viral RNA load by RT-qPCR); format: cell-based, Dengue virus; settings: DENV-2 in Vero-B cells, inhibition of viral RNA replication by 50% (Table 3)
[2] = test system: DENV-1 Djibouti strain D1/H/IMTSSA/98/606; assay: Antiviral activity against DENV-1 in Vero-B cells (viral RNA load by RT-qPCR); format: cell-based, Dengue virus
[3] = test system: DENV-3 strain H87 prototype; assay: Antiviral activity against DENV-3 in Vero-B cells (viral RNA load by RT-qPCR); format: cell-based, Dengue virus
[4] = test system: DENV-4 strain Dak HD 34 460; assay: Antiviral activity against DENV-4 in Vero-B cells (viral RNA load by RT-qPCR); format: cell-based, Dengue virus; settings: Dengue virus, DENV4, Vero B
[5] = in vitro; settings: African green monkey; for CC50 at 4 days: uninfected quiescent Vero-B cells

SMILES	EC50 ([1]; Dengue virus, DENV2, Vero B)	EC50 ([2]; Dengue virus, DENV1, Vero B)	EC50 ([3]; Dengue virus, DENV3, Vero B)	EC50 [4]	CC50 at 4 days [5]	CC50 [5]	EC50 [1]	EC50 [2]	EC50 [3]
COc1cc(CO)cc(NC(C(=O)c2c[nH]c3ccccc23)c2cccnc2)c1 (stereo not shown) [CPD-282]	260 nM	1240 nM	3120 nM	13.1 µM	> 128 µM				
COc1cc(CO)cc(NC(C(=O)c2c[nH]c3ccc(F)cc23)c2ccccc2)c1 (stereo not shown) [CPD-296]	50 nM	990 nM	1830 nM	3.31 µM	31 µM				
COc1cccc(NC(C(=O)c2c[nH]c3ccccc23)c2ccc(OC)nc2)c1 (stereo not shown) [CPD-055]	70 nM	1860 nM	3380 nM	4.44 µM	50 µM				
COc1cccc(NC(C(=O)c2c[nH]c3ccccc23)c2ccc(F)nc2)c1 (stereo not shown) [CPD-214]	30 nM	150 nM	990 nM	4.16 µM	16 µM				
COc1cncc(NC(C(=O)c2c[nH]c3ccccc23)c2ccc(C#N)cc2)c1 (stereo not shown) [CPD-159]	110 nM	1480 nM	3160 nM	6.86 µM	67 µM				
COc1cc(NC(C(=O)c2nn(C)c3ccccc23)c2ccccc2)cc(OCCO)c1 (stereo not shown) [CPD-298]	420 nM	2020 nM	5790 nM	4.52 µM	> 116 µM				
COc1cc(NC(C(=O)c2c[nH]c3c(C)cccc23)c2ccccc2)cc(OC)c1 (stereo not shown) [CPD-337]	5 nM	90 nM	230 nM	0.95 µM	15 µM				
COc1cccc(NC(C(=O)c2c[nH]c3c(OC)cccc23)c2ccccc2)c1 (stereo not shown) [CPD-222]	130 nM	1810 nM	3270 nM	3.14 µM	> 129 µM				
COc1cc(NC(C(=O)c2c[nH]c3ccc(F)cc23)c2ccc(OC)nc2)cc(OC)c1 (stereo not shown) [CPD-206]	20 nM	370 nM	670 nM	1.52 µM	12 µM				
COc1cc(CO)cc(NC(C(=O)c2c[nH]c3c(C)cccc23)c2ccccc2)c1 (stereo not shown) [CPD-318]	60 nM	220 nM	2320 nM	10.8 µM	54 µM				
COc1cc(NC(C(=O)c2c[nH]c3ccccc23)c2ccc(C#N)cc2)cc(OC)c1 (stereo not shown) [CPD-233]	10 nM	220 nM	1290 nM	3.09 µM	11 µM				
COc1cccc(NC(C(=O)c2c[nH]c3ccccc23)c2cncc(C)c2)c1 (stereo not shown) [CPD-309]	540 nM	620 nM	700 nM	2.8 µM	74 µM				
COc1cc(NC(C(=O)c2c[nH]c3ncc(F)cc23)c2ccccc2)cc(OC)c1 (stereo not shown) [CPD-234]	50 nM	760 nM	2000 nM	4.19 µM	15 µM				
COc1cc(CO)cc(NC(C(=O)c2c[nH]c3ccccc23)c2cc3ccccn3n2)c1 (stereo not shown) [CPD-289]	60 nM	800 nM	910 nM	10.2 µM	68 µM				
COc1cncc(NC(C(=O)c2c[nH]c3ccc(F)cc23)c2ccc(OC)nc2)c1 (stereo not shown) [CPD-241]	40 nM	620 nM	620 nM	5.69 µM	58 µM				
COc1cccc(NC(C(=O)c2c[nH]c3cc(F)ccc23)c2cccnc2)c1 (stereo not shown) [CPD-152]	90 nM	2050 nM	990 nM	5.62 µM	75 µM				
COc1cc(NC(C(=O)c2c[nH]c3nc(C)ccc23)c2ccccc2)cc(OC)c1 (stereo not shown) [CPD-232]	100 nM	850 nM	2690 nM	1.15 µM	> 125 µM				
COc1cccc(NC(C(=O)c2cn(CCO)c3ccc(F)cc23)c2ccccc2)c1 (stereo not shown) [CPD-146]	50 nM	690 nM	2720 nM	4.25 µM		25 µM			
COc1cc(NC(C(=O)c2c[nH]c3ccccc23)c2ccc(OC)nc2)cc(OCCO)c1 (stereo not shown) [CPD-291]	60 nM	800 nM	800 nM	8.67 µM	53 µM				
COc1cccc(NC(C(=O)c2c[nH]c3ccccc23)c2ccccn2)c1 (stereo not shown) [CPD-301]	80 nM	1120 nM	500 nM	4.25 µM	89 µM				
COc1cc(NC(C(=O)c2c[nH]c3c(CCO)cccc23)c2ccccc2)cc(OC)c1 (stereo not shown) [CPD-339]	90 nM	810 nM	820 nM	2.93 µM	19 µM				
COc1cccc(NC(C(=O)c2c[nH]c3ccccc23)c2ccc(C(F)(F)F)nc2)c1 (stereo not shown) [CPD-315]	50 nM	380 nM	1010 nM	1.97 µM	13 µM				

SMILES	EC50 ([1]; Dengue virus, DENV2, Vero B)	EC50 ([2]; Dengue virus, DENV1, Vero B)	EC50 ([3]; Dengue virus, DENV3, Vero B)	EC50 [4]	CC50 at 4 days [5]	CC50 [5]	EC50 [1]	EC50 [2]	EC50 [3]
COc1cc(CO)cc(NC(C(=O)c2c[nH]c3ccccc23)c2cnc(OC)cn2)c1 (stereo not shown) [CPD-288]	120 nM	1900 nM	2700 nM	6.33 µM	77 µM				
COc1cc(NC(C(=O)c2c[nH]c3ccccc23)c2cnc(OC)cn2)cc(OCCO)c1 (stereo not shown) [CPD-292]	60 nM	830 nM	1110 nM	7.08 µM	68 µM				
COc1ccc(C(Nc2cccc(OC)c2)C(=O)c2c[nH]c3ccccc23)nc1 (stereo not shown) [CPD-310]	60 nM	1110 nM	650 nM	9.37 µM	25 µM				
COc1cccc(NC(C(=O)c2nn(C)c3ccccc23)c2ccccc2)c1 (stereo not shown) [CPD-203]	730 nM	5090 nM	5060 nM	5.32 µM	> 134 µM				
COc1cccc(NC(C(=O)c2nn(C)c3cc(F)ccc23)c2ccccc2)c1 (stereo not shown) [CPD-281]	210 nM	850 nM	5570 nM	1.12 µM	> 128 µM				
COc1cccc(NC(C(=O)N2CCc3ccccc32)c2ccccc2)c1 (stereo not shown) [CPD-056]	450 nM	10600 nM	69200 nM	5.92 µM	> 139 µM				
COc1cccc(NC(C(=O)c2c[nH]c3c(Cl)cccc23)c2ccccc2)c1 (stereo not shown) [CPD-084]	30 nM	< 500 nM	2380 nM	3.09 µM	> 127 µM				
COc1cc(NC(C(=O)c2nn(C)c3ccccc23)c2cccnc2)cc(OC)c1 (stereo not shown) [CPD-279]	180 nM	620 nM	890 nM	8.66 µM	> 124 µM				
COc1cc(CO)cc(NC(C(=O)c2c[nH]c3cc(F)ccc23)c2ccccc2)c1 (stereo not shown) [CPD-285]	40 nM	840 nM	2200 nM	2.31 µM	50 µM				
COc1cncc(NC(C(=O)c2c[nH]c3ccc(F)cc23)c2ccc(OC)nc2)c1 (single isomer, unassigned) [CPD-322]				3 µM	51 µM		20 nM	300 nM	320 nM
COc1cncc(NC(C(=O)c2c[nH]c3ccccc23)c2ccc(OC)nc2)c1 (stereo not shown) [CPD-158]	90 nM	2500 nM	2190 nM	7.2 µM	63 µM				
COc1cccc(NC(C(=O)c2c[nH]c3cc(F)ccc23)c2ccc(OC)nc2)c1 (stereo not shown) [CPD-213]	60 nM	810 nM	2540 nM	2.85 µM	15 µM				
COc1cccc(NC(C(=O)c2c[nH]c3c(C)cccc23)c2ccc(OC)nc2)c1 (stereo not shown) [CPD-332]	40 nM	720 nM	1350 nM	2.84 µM	20 µM				
COc1cc(NC(C(=O)c2cn(CCO)c3ccccc23)c2ccccc2)cc(OC)c1 (stereo not shown) [CPD-148]	70 nM	1650 nM	5540 nM	2.87 µM		44 µM			
COc1cc(NC(C(=O)c2c[nH]c3ccccc23)c2ccccc2)cnc1OC (stereo not shown) [CPD-256]	190 nM	6760 nM	4490 nM	19.9 µM	83 µM				
COc1cccc(NC(C(=O)c2c[nH]c3ccc(F)cc23)c2cccnc2)c1 (stereo not shown) [CPD-151]	90 nM	530 nM	2100 nM	4.87 µM	> 133 µM				
COc1cc(CO)cc(NC(C(=O)c2c[nH]c3ccccc23)c2ccc(F)cc2)c1 (stereo not shown) [CPD-313]	40 nM	720 nM	1110 nM	5.84 µM	58 µM				
COc1cccc(NC(C(=O)c2c[nH]c3ccccc23)c2cncc(F)c2)c1 (stereo not shown) [CPD-321]	110 nM	400 nM	320 nM	2.74 µM	33 µM				
COc1cccc(NC(C(=O)c2nn(C)c3cc(OC)ccc23)c2ccccc2)c1 (stereo not shown) [CPD-266]	60 nM	700 nM	4320 nM	3.51 µM	> 124 µM				
COc1cccc(NC(C(=O)c2c[nH]c3ccccc23)c2cccc3ccnn23)c1 (stereo not shown) [CPD-043]	290 nM	3380 nM	5880 nM	4.76 µM	> 126 µM				
COc1cccc(NC(C(=O)c2nn(C)c3ccccc23)c2cc3ccccn3n2)c1 (stereo not shown) [CPD-273]	320 nM	580 nM	7660 nM	8.41 µM	> 122 µM				
COc1cccc(NC(C(=O)c2c[nH]c3c(F)cccc23)c2cccnc2)c1 (stereo not shown) [CPD-153]	290 nM	6260 nM	2260 nM	3.68 µM	> 133 µM				

Reference: patent publication US12012411B2, “Viral replication inhibitors” (Katholieke Universiteit Leuven, priority 2011, dated 2024)
